Converted amounts (≈) assume the structure as drawn. Where two headings read alike, the source gives them in different places.
What was measured:
human (hACC2) = human (hACC2) (Homo sapiens, UniProt O00763); assay: In vitro ACC inhibition assay (ADP-Glo), hACC2; assay type: biochemical; details: 5 nM ACC2, 20 μM ATP, 20 μM acetyl-CoA
Procedure: The detailed procedure is as follows. […] 10 μL ADP glo reagent was added. […] 20 μL kinase detection reagent was added.

C. parapsilosis = assay: Antifungal Activity Assay (broth microtiter MIC), C. parapsilosis; assay type: cell-based, Candida parapsilosis; details: Lodderomyces parapsilosis, ATCC22019, 48 h
Summary of the method: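 MICs were scored by eye at 48 h relative to the growth control. Plates followed CLSI M27-A3, with Candida suspensions in RPMI 1640+MOPS giving a final 2.5×10^3 CFU/mL; the colonies came from Sabouraud agar grown overnight at 35 °C.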

[1] = system: Collectotrichum graminicola (Cg); assay: Growth inhibition assay of fungal pathogens, Cg; assay type: cell-based; details: 48 h
Summary of the method: (§1)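 Read-out: OD600 plus visual rating at 24 and 48 h, blank (media + 2% DMSO) subtracted. Percent inhibition was derived at 48 h versus the 2% DMSO control. Spores were grown in 17% V8 broth with compound at 50/10/2 or 2/0.4/0.08 ppm final.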

Diplodia maydis (Dm) = assay: Growth inhibition assay of fungal pathogens, Dm; assay type: cell-based; details: Stenocarpella maydis, 48 h
Summary of the method: as §1

[2] = system: Fusarium moniliforme (Fm); assay: Growth inhibition assay of fungal pathogens, Fm; assay type: cell-based; details: for IC90: Fusarium verticillioides, 48 h, read-out: Concentration at 90% Inhibition Fm
Summary of the method: as §1

[3] = system: Fusarium virguliforme (Fv); assay: Growth inhibition assay of fungal pathogens, Fv; assay type: cell-based; details: 48 h
Summary of the method: as §1

[4] = system: Phytophthora capsici (Pc); assay: Growth inhibition assay of fungal pathogens, Pc; assay type: cell-based; details: 48 h
Summary of the method: as §1

Rhizoctonia solani (Rs) = assay: Growth inhibition assay of fungal pathogens, Rs; assay type: cell-based; details: 48 h
Septoria tritici (St) = assay: Growth inhibition assay of fungal pathogens, St; assay type: cell-based; details: Zymoseptoria tritici, 48 h
Summary of the method: as §1

fungal (fACC2) = fungal (fACC2) (UniProt Q00955); details: read-out: fACC2 (in vitro ACC2 Inhibition Assay, IC50), ADP-Glo, 5 nM ACC2, 20 μM ATP, 20 μM acetyl-CoA
[5] = read-out: MIC, C. parapsilosis ATCC 22019, Table 3a, 3 replicates, MIC recorded at 48 h
[6] = read-out: MIC, C. parapsilosis ATCC 22019, Table 3b (additional results), 3 replicates, MIC recorded at 48 h
[7] = read-out: Concentration at 90% Inhibition Cg, Collectotrichum graminicola, growth inhibition at 48 hours vs 2% DMSO control
[8] = read-out: Concentration at 90% Inhibition Cg, Collectotrichum graminicola, growth inhibition vs 2% DMSO control at 48 hours
[9] = read-out: Concentration at 90% Inhibition Dm, Diplodia maydis, growth inhibition at 48 hours vs 2% DMSO control
[10] = read-out: Concentration at 90% Inhibition Dm, Diplodia maydis, growth inhibition vs 2% DMSO control at 48 hours
[11] = Fusarium moniliforme, growth inhibition at 48 hours vs 2% DMSO control
[12] = read-out: Concentration at 90% Inhibition Fv, Fusarium virguliforme, growth inhibition at 48 hours vs 2% DMSO control
[13] = read-out: Concentration at 90% Inhibition Fv, Fusarium virguliforme, growth inhibition vs 2% DMSO control at 48 hours
[14] = read-out: Concentration at 90% Inhibition Pc, Phytophthora capsici, growth inhibition at 48 hours vs 2% DMSO control
[15] = read-out: Concentration at 90% Inhibition Pc, Phytophthora capsici, growth inhibition vs 2% DMSO control at 48 hours
[16] = read-out: Concentration at 90% Inhibition Rs, Rhizoctonia solani, mycelial plugs, growth inhibition at 48 hours vs 2% DMSO control
[17] = read-out: Concentration at 90% Inhibition Rs, Rhizoctonia solani, mycelial plugs, growth inhibition vs 2% DMSO control at 48 hours
[18] = read-out: Concentration at 90% Inhibition St, Septoria tritici, growth inhibition at 48 hours vs 2% DMSO control
[19] = read-out: Concentration at 90% Inhibition St, Septoria tritici, growth inhibition vs 2% DMSO control at 48 hours
[20] = Table 3a, ATCC 22019, 3 replicates, MIC recorded at 48 h, read-out: MIC, C. parapsilosis ATCC 22019
[21] = Table 3b (additional results), ATCC 22019, 3 replicates, MIC recorded at 48 h, read-out: MIC, C. parapsilosis ATCC 22019
[22] = Collectotrichum graminicola, growth inhibition at 48 hours vs 2% DMSO control, read-out: Concentration at 90% Inhibition Cg
[23] = Collectotrichum graminicola, growth inhibition vs 2% DMSO control at 48 hours, read-out: Concentration at 90% Inhibition Cg
[24] = Diplodia maydis, growth inhibition at 48 hours vs 2% DMSO control, read-out: Concentration at 90% Inhibition Dm
[25] = Diplodia maydis, growth inhibition vs 2% DMSO control at 48 hours, read-out: Concentration at 90% Inhibition Dm
[26] = Fusarium moniliforme, growth inhibition vs 2% DMSO control at 48 hours
[27] = growth inhibition at 48 hours vs 2% DMSO control, read-out: Concentration at 90% Inhibition Fv
[28] = growth inhibition vs 2% DMSO control at 48 hours, read-out: Concentration at 90% Inhibition Fv
[29] = growth inhibition at 48 hours vs 2% DMSO control, read-out: Concentration at 90% Inhibition Pc
[30] = growth inhibition vs 2% DMSO control at 48 hours, read-out: Concentration at 90% Inhibition Pc
[31] = mycelial plugs, growth inhibition at 48 hours vs 2% DMSO control, read-out: Concentration at 90% Inhibition Rs
[32] = mycelial plugs, growth inhibition vs 2% DMSO control at 48 hours, read-out: Concentration at 90% Inhibition Rs
[33] = Septoria tritici, growth inhibition at 48 hours vs 2% DMSO control, read-out: Concentration at 90% Inhibition St
[34] = Septoria tritici, growth inhibition vs 2% DMSO control at 48 hours, read-out: Concentration at 90% Inhibition St

Chain of human (hACC2) (O00763 whole entry): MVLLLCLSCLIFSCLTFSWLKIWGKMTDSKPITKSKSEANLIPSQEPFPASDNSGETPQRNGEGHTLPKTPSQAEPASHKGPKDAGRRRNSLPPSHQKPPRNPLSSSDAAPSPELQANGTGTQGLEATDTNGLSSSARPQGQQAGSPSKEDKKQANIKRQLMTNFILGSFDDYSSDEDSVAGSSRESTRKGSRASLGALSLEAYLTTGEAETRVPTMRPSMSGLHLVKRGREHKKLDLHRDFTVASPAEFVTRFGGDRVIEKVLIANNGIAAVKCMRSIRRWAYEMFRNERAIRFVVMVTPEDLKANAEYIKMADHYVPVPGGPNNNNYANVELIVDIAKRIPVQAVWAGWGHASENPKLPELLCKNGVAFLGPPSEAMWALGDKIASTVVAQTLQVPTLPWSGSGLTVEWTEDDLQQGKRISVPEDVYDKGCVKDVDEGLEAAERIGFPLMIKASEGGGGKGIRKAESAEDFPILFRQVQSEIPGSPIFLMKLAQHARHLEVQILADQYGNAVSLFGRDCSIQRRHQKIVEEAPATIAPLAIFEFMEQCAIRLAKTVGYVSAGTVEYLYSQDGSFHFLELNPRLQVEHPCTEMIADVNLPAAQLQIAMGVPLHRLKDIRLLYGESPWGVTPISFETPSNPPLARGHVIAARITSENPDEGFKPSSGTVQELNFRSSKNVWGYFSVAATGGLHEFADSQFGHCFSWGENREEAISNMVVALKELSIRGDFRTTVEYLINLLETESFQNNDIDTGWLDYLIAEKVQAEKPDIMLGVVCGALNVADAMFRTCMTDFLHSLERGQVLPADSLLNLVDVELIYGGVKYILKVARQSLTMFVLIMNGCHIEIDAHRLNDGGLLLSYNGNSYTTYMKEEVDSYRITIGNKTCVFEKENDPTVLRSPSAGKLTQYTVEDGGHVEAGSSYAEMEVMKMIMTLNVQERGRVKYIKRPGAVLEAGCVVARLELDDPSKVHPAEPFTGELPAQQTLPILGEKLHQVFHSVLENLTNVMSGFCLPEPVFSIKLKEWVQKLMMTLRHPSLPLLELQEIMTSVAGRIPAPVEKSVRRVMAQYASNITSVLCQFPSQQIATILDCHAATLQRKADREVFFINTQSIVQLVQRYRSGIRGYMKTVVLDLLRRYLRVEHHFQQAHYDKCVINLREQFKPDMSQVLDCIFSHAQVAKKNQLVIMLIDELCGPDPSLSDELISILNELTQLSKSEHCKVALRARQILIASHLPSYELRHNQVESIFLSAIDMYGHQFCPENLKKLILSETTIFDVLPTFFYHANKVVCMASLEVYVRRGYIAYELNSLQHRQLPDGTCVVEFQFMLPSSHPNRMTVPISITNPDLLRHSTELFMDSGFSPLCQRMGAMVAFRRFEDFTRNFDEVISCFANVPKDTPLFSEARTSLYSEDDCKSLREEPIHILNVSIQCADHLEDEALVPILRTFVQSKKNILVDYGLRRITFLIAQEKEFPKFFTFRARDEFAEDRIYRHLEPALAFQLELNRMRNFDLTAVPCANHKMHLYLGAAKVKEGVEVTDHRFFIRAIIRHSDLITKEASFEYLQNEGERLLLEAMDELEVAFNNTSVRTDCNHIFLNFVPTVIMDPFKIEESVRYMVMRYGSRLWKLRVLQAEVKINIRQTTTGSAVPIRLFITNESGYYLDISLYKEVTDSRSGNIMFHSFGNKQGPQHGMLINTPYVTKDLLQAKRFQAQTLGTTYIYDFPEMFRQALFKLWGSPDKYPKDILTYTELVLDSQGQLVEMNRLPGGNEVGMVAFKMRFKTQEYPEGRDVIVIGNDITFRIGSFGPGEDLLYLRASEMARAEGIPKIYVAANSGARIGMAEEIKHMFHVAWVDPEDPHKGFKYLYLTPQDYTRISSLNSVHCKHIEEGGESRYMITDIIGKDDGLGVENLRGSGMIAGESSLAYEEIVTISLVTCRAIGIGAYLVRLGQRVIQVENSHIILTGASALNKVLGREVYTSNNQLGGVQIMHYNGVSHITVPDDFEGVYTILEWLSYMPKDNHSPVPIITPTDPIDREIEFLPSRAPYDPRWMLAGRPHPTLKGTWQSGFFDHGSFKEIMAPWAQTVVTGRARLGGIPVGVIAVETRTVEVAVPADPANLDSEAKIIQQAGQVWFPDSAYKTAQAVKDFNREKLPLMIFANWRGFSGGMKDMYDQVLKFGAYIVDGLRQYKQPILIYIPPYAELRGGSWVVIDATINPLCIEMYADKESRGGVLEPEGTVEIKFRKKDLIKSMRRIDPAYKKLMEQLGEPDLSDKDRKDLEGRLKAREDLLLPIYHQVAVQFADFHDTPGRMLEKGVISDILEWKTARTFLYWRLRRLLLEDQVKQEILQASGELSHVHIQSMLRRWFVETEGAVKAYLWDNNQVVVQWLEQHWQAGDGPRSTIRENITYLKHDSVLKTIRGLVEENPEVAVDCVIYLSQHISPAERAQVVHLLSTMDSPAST
Chain of fungal (fACC2) (Q00955 whole entry): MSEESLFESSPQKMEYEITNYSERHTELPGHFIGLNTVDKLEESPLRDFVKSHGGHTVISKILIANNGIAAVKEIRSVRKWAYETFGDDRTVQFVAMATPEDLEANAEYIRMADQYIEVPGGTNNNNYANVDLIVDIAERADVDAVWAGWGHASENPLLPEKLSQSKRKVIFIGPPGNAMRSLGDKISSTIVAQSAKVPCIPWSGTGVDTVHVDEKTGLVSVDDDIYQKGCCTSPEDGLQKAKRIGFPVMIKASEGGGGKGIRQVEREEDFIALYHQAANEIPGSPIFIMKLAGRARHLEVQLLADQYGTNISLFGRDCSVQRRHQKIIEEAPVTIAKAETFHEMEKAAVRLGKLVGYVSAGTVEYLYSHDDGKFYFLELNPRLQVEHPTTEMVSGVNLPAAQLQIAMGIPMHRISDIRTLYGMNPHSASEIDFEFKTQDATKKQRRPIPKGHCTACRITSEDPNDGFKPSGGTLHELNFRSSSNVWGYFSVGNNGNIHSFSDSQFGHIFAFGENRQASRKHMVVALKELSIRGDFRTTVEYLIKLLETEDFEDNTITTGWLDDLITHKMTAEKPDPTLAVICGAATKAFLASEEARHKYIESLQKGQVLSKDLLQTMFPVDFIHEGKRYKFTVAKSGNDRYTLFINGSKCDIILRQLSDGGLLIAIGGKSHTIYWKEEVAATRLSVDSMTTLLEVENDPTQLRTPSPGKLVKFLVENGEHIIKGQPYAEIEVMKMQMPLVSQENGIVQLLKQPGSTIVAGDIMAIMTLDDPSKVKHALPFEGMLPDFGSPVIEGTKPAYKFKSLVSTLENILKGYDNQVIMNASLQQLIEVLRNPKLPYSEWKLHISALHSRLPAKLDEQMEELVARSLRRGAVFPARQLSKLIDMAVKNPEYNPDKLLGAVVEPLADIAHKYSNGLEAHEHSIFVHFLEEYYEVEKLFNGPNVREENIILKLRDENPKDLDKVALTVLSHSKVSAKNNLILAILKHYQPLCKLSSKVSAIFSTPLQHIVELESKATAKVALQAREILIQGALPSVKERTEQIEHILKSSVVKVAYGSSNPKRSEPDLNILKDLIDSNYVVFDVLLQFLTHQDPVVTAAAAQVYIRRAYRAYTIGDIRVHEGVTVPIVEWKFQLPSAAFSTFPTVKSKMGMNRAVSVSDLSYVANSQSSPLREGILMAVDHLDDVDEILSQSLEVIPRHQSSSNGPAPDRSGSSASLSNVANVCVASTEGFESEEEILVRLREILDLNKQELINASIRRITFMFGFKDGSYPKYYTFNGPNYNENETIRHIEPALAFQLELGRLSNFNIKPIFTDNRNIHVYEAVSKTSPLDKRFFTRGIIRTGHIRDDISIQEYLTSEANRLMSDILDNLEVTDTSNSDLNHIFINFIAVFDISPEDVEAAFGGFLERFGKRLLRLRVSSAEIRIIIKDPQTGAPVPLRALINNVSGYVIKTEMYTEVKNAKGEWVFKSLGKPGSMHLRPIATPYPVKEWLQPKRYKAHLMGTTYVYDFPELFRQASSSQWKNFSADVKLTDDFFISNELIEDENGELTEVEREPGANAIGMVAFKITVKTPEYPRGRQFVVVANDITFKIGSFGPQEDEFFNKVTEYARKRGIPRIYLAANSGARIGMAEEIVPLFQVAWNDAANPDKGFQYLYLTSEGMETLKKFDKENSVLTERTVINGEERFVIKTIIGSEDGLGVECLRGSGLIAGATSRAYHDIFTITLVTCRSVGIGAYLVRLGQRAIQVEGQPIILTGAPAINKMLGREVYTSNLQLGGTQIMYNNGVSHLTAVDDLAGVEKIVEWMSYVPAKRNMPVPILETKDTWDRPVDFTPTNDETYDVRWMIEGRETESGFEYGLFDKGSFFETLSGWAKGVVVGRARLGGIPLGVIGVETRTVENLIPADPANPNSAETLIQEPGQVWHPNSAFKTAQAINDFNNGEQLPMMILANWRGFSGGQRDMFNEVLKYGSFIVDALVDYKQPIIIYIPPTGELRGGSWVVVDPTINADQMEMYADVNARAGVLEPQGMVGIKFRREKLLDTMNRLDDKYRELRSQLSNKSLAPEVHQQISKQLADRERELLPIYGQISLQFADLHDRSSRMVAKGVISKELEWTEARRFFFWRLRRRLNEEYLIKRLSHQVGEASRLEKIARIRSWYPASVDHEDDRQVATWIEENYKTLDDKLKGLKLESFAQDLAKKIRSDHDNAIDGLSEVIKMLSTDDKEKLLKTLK

Structure (SMILES) | IC50 (human (hACC2); Table 2a) [nM] | IC50 (human (hACC2); Table 2b, additional results) [nM] | MIC (C. parapsilosis; [5]) [µg/mL] | MIC (C. parapsilosis; [6]) [µg/mL] | IC90 [1, 7] [µg/mL] | IC90 [1, 8] [µg/mL] | IC90 (Diplodia maydis (Dm); [9]) [µg/mL] | IC90 (Diplodia maydis (Dm); [10]) [µg/mL] | Concentration at 90% Inhibition Fm [2, 11] | IC90 [2] [µg/mL] | IC90 [3, 12] [µg/mL] | IC90 [3, 13] [µg/mL] | IC90 [4, 14] [µg/mL] | IC90 [4, 15] [µg/mL] | IC90 (Rhizoctonia solani (Rs); [16]) [µg/mL] | IC90 (Rhizoctonia solani (Rs); [17]) [µg/mL] | IC90 (Septoria tritici (St); [18]) [µg/mL] | IC90 (Septoria tritici (St); [19]) [µg/mL] | IC50 (fungal (fACC2); Table 2a) [nM] | IC50 (fungal (fACC2); Table 2b, additional results) [nM] | other results
COc1ccc(F)cc1[C@H](Cn1c(=O)n(CC(=O)NC(C)C)c(=O)c2c(C)c(-n3nccn3)sc21)OC(C)C [Compound I-35, (R)-2-(1-(2-(5-fluoro-2-methoxyphenyl)-2-isopropoxy-ethyl)-5-methyl-2,4-dioxo-6-(2H-1,2,3-triazol-2-yl)-1,4-dihydrothieno[2,3-d]pyrimidin-3(2H)-yl)-N-isopropylacetamide] | 1 to 5 | 1 to 5 | 2.1 to 4 (≈ 3.76 to 7.16 µM) | 2.01 to 4 (≈ 3.6 to 7.16 µM) | > 50 | > 50 | 0.4 (≈ 0.716 µM) | 0.4 (≈ 0.716 µM) | AA (compound concentration of 0.08 ppm at 90% inhibition of fungal pathogens) | 0.08 (≈ 0.143 µM) | 0.4 (≈ 0.716 µM) | 0.4 (≈ 0.716 µM) | > 50 | > 50 | 2 (≈ 3.58 µM) | 10 (≈ 17.9 µM) | > 50 | > 50 | 1 to 5 | 1 to 5 | –
CCO[C@@H](Cn1c(=O)n(C(C)(C)C(=O)N2CCCC2)c(=O)c2c(C)c(-n3nccn3)sc21)c1cc(F)ccc1OC [Compound I-42, (R)-1-(2-ethoxy-2-(5-fluoro-2-methoxyphenyl)ethyl)-5-methyl-3-(2-methyl-1-oxo-1-(pyrrolidin-1-yl)propan-2-yl)-6-(2H-1,2,3-triazol-2-yl)thieno[2,3-d]pyrimidine-2,4(1H,3H)-dione] | 5 to 10 | 5 to 10 | – | – | – | – | – | – | – | – | – | – | – | – | – | – | – | – | 1 to 5 | 1 to 5 | MIC (C. parapsilosis; [20]): 1.1 to 2 µg/mL (≈ 1.88 to 3.42 µM); MIC (C. parapsilosis; [21]): 1.01 to 2 µg/mL (≈ 1.73 to 3.42 µM); IC90 [1, 22]: 0.08 µg/mL (≈ 0.137 µM); IC90 [1, 23]: 0.08 µg/mL (≈ 0.137 µM); IC90 (Diplodia maydis (Dm); [24]): 0.4 µg/mL (≈ 0.684 µM); IC90 (Diplodia maydis (Dm); [25]): 0.4 µg/mL (≈ 0.684 µM); IC90 [2, 11]: 0.08 µg/mL (≈ 0.137 µM); IC90 [2, 26]: 0.08 µg/mL (≈ 0.137 µM); IC90 [3, 27]: 0.08 µg/mL (≈ 0.137 µM); IC90 [3, 28]: 0.08 µg/mL (≈ 0.137 µM); IC90 [4, 29]: > 50 µg/mL; IC90 [4, 30]: > 50 µg/mL; IC90 (Rhizoctonia solani (Rs); [31]): 0.4 µg/mL (≈ 0.684 µM); IC90 (Rhizoctonia solani (Rs); [32]): 0.4 µg/mL (≈ 0.684 µM); IC90 (Septoria tritici (St); [33]): 2 µg/mL (≈ 3.42 µM); IC90 (Septoria tritici (St); [34]): 10 µg/mL (≈ 17.1 µM)
COc1ccc(F)cc1[C@H](Cn1c(=O)n(C(C)(C)C(=O)NC(C)C)c(=O)c2c(C)c(-n3nccn3)sc21)OCCO [Compound I-43, (R)-2-(1-(2-(5-fluoro-2-methoxyphenyl)-2-(2-hydroxyethoxy)ethyl)-5-methyl-2,4-dioxo-6-(2H-1,2,3-triazol-2-yl)-1,4-dihydrothieno[2,3-d]pyrimidin-3(2H)-yl)-N-isopropyl-2-methylpropanamide] | 5 to 10 | 5 to 10 | 0.25 to 1 (≈ 0.425 to 1.7 µM) | 0.25 to 1 (≈ 0.425 to 1.7 µM) | 0.4 (≈ 0.68 µM) | 0.4 (≈ 0.68 µM) | 0.4 (≈ 0.68 µM) | 0.4 (≈ 0.68 µM) | AA (compound concentration of 0.08 ppm at 90% inhibition of fungal pathogens) | 0.08 (≈ 0.136 µM) | 0.4 (≈ 0.68 µM) | 0.4 (≈ 0.68 µM) | 2 (≈ 3.4 µM) | 10 (≈ 17 µM) | 0.08 (≈ 0.136 µM) | 0.08 (≈ 0.136 µM) | 2 (≈ 3.4 µM) | 10 (≈ 17 µM) | 0.4 to 1 | 0.3 to 1 | –
COc1ccc(F)cc1[C@H](Cn1c(=O)n(C(C)(C)C(=O)N2CCCC2)c(=O)c2c(C)c(-n3nccn3)sc21)OCCO [Compound I-44, (R)-1-(2-(5-fluoro-2-methoxyphenyl)-2-(2-hydroxyethoxy)ethyl)-5-methyl-3-(2-methyl-1-oxo-1-(pyrrolidin-1-yl)propan-2-yl)-6-(2H-1,2,3-triazol-2-yl)thieno[2,3-d]pyrimidine-2,4(1H,3H)-dione] | 5 to 10 | 5 to 10 | – | – | – | – | – | – | – | – | – | – | – | – | – | – | – | – | 0.4 to 1 | 0.3 to 1 | MIC (C. parapsilosis; [20]): 2.1 to 4 µg/mL (≈ 3.5 to 6.66 µM); MIC (C. parapsilosis; [21]): 1.01 to 2 µg/mL (≈ 1.68 to 3.33 µM); IC90 [1, 22]: 2 µg/mL (≈ 3.33 µM); IC90 [1, 23]: 2 µg/mL (≈ 3.33 µM); IC90 (Diplodia maydis (Dm); [24]): 2 µg/mL (≈ 3.33 µM); IC90 (Diplodia maydis (Dm); [25]): 10 µg/mL (≈ 16.6 µM); IC90 [2, 11]: 0.4 µg/mL (≈ 0.666 µM); IC90 [2, 26]: 0.4 µg/mL (≈ 0.666 µM); IC90 [3, 27]: 0.4 µg/mL (≈ 0.666 µM); IC90 [3, 28]: 0.4 µg/mL (≈ 0.666 µM); IC90 [4, 29]: > 50 µg/mL; IC90 [4, 30]: > 50 µg/mL; IC90 (Rhizoctonia solani (Rs); [31]): 2 µg/mL (≈ 3.33 µM); IC90 (Rhizoctonia solani (Rs); [32]): 10 µg/mL (≈ 16.6 µM); IC90 (Septoria tritici (St); [33]): > 50 µg/mL; IC90 (Septoria tritici (St); [34]): > 50 µg/mL

Source: patent publication US10800791B2, “Triazole ACC inhibitors and uses thereof” (Gilead Apollo, LLC, priority 2015, dated 2020)
